In patent US8124641B2, “Aminotetrahydroindazoloacetic acids” (Hoffmann-La Roche Inc., priority 2008, dated 2012):

Biological target: T1, human CRTH2 (Homo sapiens, UniProt Q9Y5Y4)
T1 construct: expressed in transfected cells
T1 sequence (Q9Y5Y4 1-395): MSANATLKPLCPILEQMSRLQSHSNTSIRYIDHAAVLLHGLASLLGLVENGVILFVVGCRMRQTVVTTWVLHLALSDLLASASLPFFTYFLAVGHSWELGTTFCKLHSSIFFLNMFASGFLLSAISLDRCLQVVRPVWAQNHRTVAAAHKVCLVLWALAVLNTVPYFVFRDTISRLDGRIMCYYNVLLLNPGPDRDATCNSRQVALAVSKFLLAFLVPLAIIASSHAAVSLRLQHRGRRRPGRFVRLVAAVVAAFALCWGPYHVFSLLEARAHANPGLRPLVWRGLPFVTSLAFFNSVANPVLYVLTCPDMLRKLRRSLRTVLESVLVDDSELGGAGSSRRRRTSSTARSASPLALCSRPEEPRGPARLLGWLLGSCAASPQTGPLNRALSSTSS
Test: Human CRTH2 Receptor Binding Assay (whole cell, [3H]ramatroban competition)
Conditions: CHO-K1 cells stably expressing human CRTH2 and G-alpha16; 20 nM [3H]ramatroban; 1 hour, room temperature
Method in brief: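 Whole CHO-K1 cells stably expressing human CRTH2 and G-alpha16 were incubated with 20 nM [3H]ramatroban and compound for 1 h at room temperature in PBS with 10 mM MgCl2 and 0.06% BSA, then filtered and counted. Non-specific binding was defined with 10 μM 15(R)-15-methyl PGD2, and IC50 was fitted by 4-parameter logistic from 7 concentrations.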

IC50 | SMILES
40.4 nM | C=C(C)c1cc(C(F)(F)F)cc(S(=O)(=O)NC2CCCc3c2cnn3CC(=O)O)c1 (stereo not drawn) [Example 25-3a, [4-(3-Isopropenyl-5-trifluoromethyl-benzenesulfonylamino)-4,5,6,7-tetrahydro-indazol-1-yl]-acetic acid]
16.3 nM | CN([C@@H]1CCCc2c1cnn2CC(=O)O)S(=O)(=O)c1cc(C2CC2)cc(C(F)(F)F)c1 [Example 26-1a, {(R)-4-[(3-Cyclopropyl-5-trifluoromethyl-benzenesulfonyl)-methyl-amino]-4,5,6,7-tetrahydro-indazol-1-yl}-acetic acid]

The remaining lines, values behind:

SMILES | IC50
CN(C)c1cc(C(F)(F)F)cc(S(=O)(=O)N(C)[C@@H]2CCCc3c2cnn3CC(=O)O)c1 [Example 24-3a, {(R)-4-[(3-Dimethylamino-5-trifluoromethyl-benzenesulfonyl)-methyl-amino]-4,5,6,7-tetrahydro-indazol-1-yl}-acetic acid] | 62.2 nM
CCN(CC)c1cc(C(F)(F)F)cc(S(=O)(=O)N(C)[C@@H]2CCCc3c2cnn3CC(=O)O)c1 [Example 24-4a, {(R)-4-[(3-Diethylamino-5-trifluoromethyl-benzenesulfonyl)-methyl-amino]-4,5,6,7-tetrahydro-indazol-1-yl}-acetic acid] | 146 nM
O=C(O)Cn1ncc2c1CCCC2NS(=O)(=O)c1cc(C2CC2)cc(C(F)(F)F)c1 (stereo not drawn) [Example 25-1a, [4-(3-Cyclopropyl-5-trifluoromethyl-benzenesulfonylamino)-4,5,6,7-tetrahydro-indazol-1-yl]-acetic acid] | 22 nM
Cc1cc(C(F)(F)F)cc(S(=O)(=O)NC2CCCc3c2cnn3CC(=O)O)c1 (stereo not drawn) [Example 25-2a, [4-(3-Methyl-5-trifluoromethyl-benzenesulfonylamino)-4,5,6,7-tetrahydro-indazol-1-yl]-acetic acid] | 142 nM
